Laboratory results taken from publication PMC12257544, “Fluorescent Isostere (Fluostere) of the Carboxylate: Design of hDHODH Fluorescent Inhibitors as Proof of Concept” (Journal of Medicinal Chemistry, 2025).

Key:
[1] = Photophysical characterization (absorption, emission, QY, lifetime); assay type: physicochemical; settings: in ACN
Procedure: UV–Vis absorption spectra were recorded on a Cary60 spectrometer. Photoemission spectra, luminescence lifetimes, and quantum yields were acquired with a HORIBA Jobin Yvon IBH Fluorolog-TCSPC spectrofluorometer equipped with a Quanta-φ integrating sphere. […] Emission-decay data were collected in 2048 channels to 10000 counts in the peak channel. IRF was measures using colloidal silica suspension in H2O to scatter light. Data were analyzed with the software DAS6 (TCSPC decay-analysis software) using a nonlinear least-squares method to fit of the decay to a sum of exponentials. The value of χ^2, residuals and the autocorrelation function (Durbin-Watson parameter) were used to determine the quality of the fit. For measurements in the presence of hDHODH, 11a was incubated, at 1 μM concentration in TRIS Buffer 0.1 mM (pH 8) with 0.1% DMSO, alone or with different concentrations of recombinant protein ranging from 31.5 to 504 nM concentration. After 5 min incubation UV–Vis absorption spectra were recorded on a Cary60 spectrophotometer and photoemission spectra were acquired with a HORIBA Jobin Yvon IBH Fluorolog-TCSPC spectrofluorometer with excitation λ of 366 nm and maximum of emission at 500 nm; a.u. data were analyzed with GraphPad Prism using One Site – Specific Binding equation.

Experimental pKa = assay type: physicochemical

With `Oc1cc2ccccn2n1` [Compound 1, Pyrazolo[1,5-a]pyridin-2-ol] as the compound, how does the Lifetime [1] read?
Its Lifetime is 12 ns.

What about the “QY (luminescence quantum yield)” value [1] of the same compound?
The value was 0.21.

And the Stokes shift [1]?
The Stokes shift was 7567 cm^–1.

What about the λabs [1] of the same compound?
Its λabs is 310 nm.

And the λem [1]?
Its λem is 405 nm.

What about the pKa (Experimental pKa) of the same compound?
The pKa was roughly 5.
